# Molecular target: T1, human 5-HT3A receptor N101A mutant (Homo sapiens, UniProt P46098, N123A)
# T1 construct: expressed in transfected cells; host or cells: Xenopus oocytes injected with mutant mRNA
# T1 sequence (P46098 24-478 N123A): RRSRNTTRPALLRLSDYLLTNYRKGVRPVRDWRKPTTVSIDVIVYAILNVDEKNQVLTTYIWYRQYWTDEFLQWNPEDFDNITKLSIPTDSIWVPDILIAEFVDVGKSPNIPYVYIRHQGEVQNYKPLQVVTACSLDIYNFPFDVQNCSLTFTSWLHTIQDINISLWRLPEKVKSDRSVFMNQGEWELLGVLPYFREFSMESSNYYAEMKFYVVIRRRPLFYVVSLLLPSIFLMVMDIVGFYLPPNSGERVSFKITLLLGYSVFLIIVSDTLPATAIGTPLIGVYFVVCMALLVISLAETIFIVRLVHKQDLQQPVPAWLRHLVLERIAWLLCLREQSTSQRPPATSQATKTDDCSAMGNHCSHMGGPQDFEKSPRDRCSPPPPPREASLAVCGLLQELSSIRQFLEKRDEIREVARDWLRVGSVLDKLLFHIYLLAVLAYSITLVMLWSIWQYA
# Assay: Two-electrode voltage clamp, I5-HT inhibition, N101A mutant
# Format: cell-based
# Method: Human 5-HT3A receptor cDNA was linearized using restriction enzyme XhoI. In vitro transcription was performed using an mMESSAGE mMACHINE T7 Transcription Kit (Thermo Fisher Scientific, Waltham, MA, USA). The final mRNA product was dissolved in 1X Diethyl Pyrocarbonate (RNase-free water) at a final concentration of 1 μg/μL and kept in a deep-freezer at −80 °C until used.
# Xenopus oocytes were used in this study as cells for expression of human 5-HT3A receptor. All female frogs used in this experiment were obtained from the Korean Xenopus Resource Center for Research (KXRCR000001). […] Isolated oocytes were incubated with ND96 incubation buffer (96 mM NaCl, 2 mM KCl, 1 mM MgCl2, 1.8 mM CaCl2, 5 mM HEPES, 2.5 mM sodium pyruvate, and […], pH 7.4) at 18 °C until the experiment was performed. Human 5-HT3A receptor mRNA was injected into oocytes using a nanoinjector (Drummond Scientific, Broomall, PA, USA) with a mineral-filled 10 μL microdispenser (VWR, Piscataway, NJ, USA).
# For the experiment, induced-inward current was converted to digital data with pClamp 10 software (Axon Instruments, Union City, CA, USA). All experiments were performed at room temperature using an oocyte clamp equipped with Digidata. The membrane holding potential was −80 mV.
# The voltage relationship experiment for confirming the relationship between induce-inward current and voltage, the voltage was varied from −80 mV to +60 mV using a ramp protocol. Each microelectrode was filled with 3 M KCl having a resistance of 0.2 MΩ. Serotonin and KAE applied in the experiment were diluted in ND96 bath solution (96 mM NaCl, 2 mM KCl, 1 mM MgCl2, 1.8 mM CaCl2, and 5 mM HEPES, pH 7.5) to specified concentration. The rate of application of the reagent was 2 mL per minute. All recording data were analyzed using Clampfit 9.0 (Molecular Devices, San Jose, CA, USA). […]
# All presented experiments were performed at least three times for scientific verification. […] Induced-inward current data were analyzed with SigmaPlot 10.0 software (Systat Software, Inc., San Jose, CA, USA).
smiles,measurement,setting,value
"O=c1c(O)c(-c2ccc(O)cc2)oc2cc(O)cc(O)c12 [KAE, kaempferol]",IC50,,56.4 ± 9.7 µM
same,Vmax,"N101A, −80 mV",83.7 ± 8.6%
same,n (Hill coefficient),"N101A, −80 mV",1.1 ± 0.6

# — article PMC8745345, “Hydroxy Pentacyclic Triterpene Acid, Kaempferol, Inhibits the Human 5-Hydroxytryptamine Type 3A Receptor Activity” (International Journal of Molecular Sciences, 2022)
